{"source": "patent US20130190190A1", "about": "“MOLECULAR TARGETS FOR MODULATING INTRAOCCULAR PRESSURE AND DIFFERENTIATION OF STEROID RESPONSES VERSUS NON-RESPONDERS” (priority 2007, published 2013)", "assay": "Intraocular pressure (IOP) change in study eyes of patients after a single intravitreal triamcinolone acetonide (IVTA) injection", "type": "in vivo, human", "conditions": "56 eyes", "procedure": "Patients who were recruited were offered treatment with IVTA for various retinal diseases or who had received IVTA in the past. Each patient was treated with IVTA, 4 mg in 0.1 cc, for a variety of indications, at the discretion of the treating physician. Inclusion criteria included age greater than 18 years and the ability to give appropriate informed consent. Exclusion criteria included prior pars plana vitrectomy in the study eye, anterior-segment neovascularization in the study eye, the use of any medication intended to lower IOP in the study eye, or a history of glaucoma, suspected glaucoma, or ocular hypertension in the study eye. All IOP measurements were as per the treating physician's standard practice, typically either applanation tonometry or Tono-pen (Reichert, Depew, N.Y.). No standardized IOP measurement protocol was followed. Intraocular pressure (TOP) was recorded in the study eye prior to treatment with IVTA (baseline IOP). Follow-up was performed at the discretion of the treating physician. On each subsequent visit, IOP was recorded (follow-up IOP) for up to 1 year, or until the study eye was treated with any subsequent intraocular surgery, any subsequent intravitreal injection, or any medication intended to lower IOP. Therefore, during the time period relevant to this study, each eye received only one intravitreal injection. All treatment decisions were at the discretion of the treating physician. The highest follow-up IOP was recorded (maximum IOP). The primary outcome measure was the difference between maximum IOP and baseline IOP was calculated (A IOP), with a positive value indicating a rise in IOP.", "data": [{"smiles": "CC1(C)O[C@@H]2C[C@H]3[C@@H]4CCC5=CC(=O)C=C[C@]5(C)[C@@]4(F)[C@@H](O)C[C@]3(C)[C@]2(C(=O)CO)O1", "note": "[IVTA, triamcinolone acetonide]", "values": [{"measurement": "Mean Δ IOP (maximum IOP minus baseline IOP)", "setting": "IVTA 4 mg in 0.1 cc intravitreal, follow-up up to 1 year, positive value = rise in IOP", "value": 7, "unit": "mmHg"}, {"measurement": "Eyes with Δ IOP greater than 10 mmHg", "setting": "IVTA 4 mg intravitreal, follow-up up to 1 year, 9 eyes", "value": 16, "unit": "%"}, {"measurement": "Eyes with Δ IOP less than 5 mmHg", "setting": "IVTA 4 mg intravitreal, follow-up up to 1 year, 20 eyes", "value": 36, "unit": "%"}, {"measurement": "Eyes with Δ IOP 5-10 mmHg", "setting": "IVTA 4 mg intravitreal, follow-up up to 1 year, 27 eyes", "value": 48, "unit": "%"}, {"measurement": "Mean maximum follow-up IOP", "setting": "patients with retinal diseases, IVTA 4 mg in 0.1 cc, one intravitreal injection, highest IOP in follow-up up to 1 year, mean baseline IOP 15 mmHg", "value": 22, "unit": "mmHg"}]}]}
